Assay results: patent US7745459B2, “Quinolizinone compound and use thereof as HIV integrase inhibitor” (Japan Tobacco Inc., priority 2004, dated 2010)

Biological target: T1, HIV integrase (Human immunodeficiency virus type 1 group M subtype B, UniProt P12497, F1332H)
T1 construct: HIV integrase full length gene; made in house; host or cells: Escherichia coli BL21 (DE3)
Assay: Determination of enzyme (HIV integrase) inhibitory activity
Format: biochemical
Conditions: recombinant integrase protein (phenylalanine at codon 185 substituted by histidine); donor/target DNA, absorbance at 450 nm; read-out: Anti-integrase activity (IC50 value)
Text: The following explains evaluation methods of the HIV integrase inhibitory activity of the compound of the present invention.
HIV integrase full length gene (J. Virol., 67, 425-437 (1993)) in which phenylalanine at codon 185 was substituted by histidine, was inserted between the restriction enzyme NdeI and XhoI sites of plasmid pET21a(+) (Novagen), whereby an integrase expression vector pET21a-INH was constructed.
Escherichia coli recombinant BL21 (DE3) transformed with plasmid pET21a-INH obtained in (i) was shake cultured at 37° C. in a liquid medium containing ampicillin. When the culture reached the logarithmic growth phase, isopropyl-β-D-thiogalactopyranoside was added to promote expression of integrase gene. The culture was continued for 3 hr to promote accumulation of the integrase protein. The recombinant E. coli was collected in pellets by centrifugal separation and preserved at −80° C.
The E. coli was suspended in Lysis buffer (20 mM HEPES (pH 7.5), 5 mM DTT, 10 mM CHAPS, 10% glycerol) containing 1 M sodium chloride and subjected to repeat pressurization and depressurization for rupture, and centrifugal separation at 4° C., 40,000×g, 60 min to recover a water-soluble fraction (supernatant). This was diluted 10-fold with Lysis buffer free of sodium chloride, mixed with SP-Sepharose (Pharmacia Corporation) and stirred at 4° C. for 60 min to allow adsorption of integrase protein to the resin. The resin was washed with Lysis buffer containing 100 mM sodium chloride and the integrase protein was eluted with Lysis buffer containing 1 M sodium chloride.
The eluted integrase protein solution was subjected to a Superdex 75 (Pharmacia Corporation) column for gel filtration. The protein was eluted with Lysis buffer containing 1 M sodium chloride.
The obtained fractions of the integrase protein were collected and preserved at −80° C.
The following DNA synthesized by Greiner was dissolved in TE buffer (10 mM Tris-hydrochloric acid (pH 8.0), 1 mM EDTA) and mixed with donor DNA, target DNA, and each complementary strand (+ and − strands) to 1 μM. The mixture was heated at 95° C. for 5 min, 80° C. for 10 min, 70° C. for 10 min, 60° C. for 10 min, 50° C. for 10 min and 40° C. for 10 min and kept at 25° C. to give a double stranded DNA, which was used for the test.
The donor DNA was diluted with TE buffer to 10 nM, of which 50 μl was added to each well of streptavidin-coated microtiter plate (Roche) and allowed to adsorb at 37° C. for 60 min. The plate was washed with phosphate buffer (Dulbecco's PBS, Sanko Junyaku Co., Ltd.) containing 0.1% Tween 20 and phosphate buffer. Then, a reaction mixture (70 μl) having the following composition, a test substance (10 μl) diluted with the reaction mixture and 100 μg/ml integrase protein (10 μl) were added to each well and reacted at 37° C. for 60 min. Composition of the reaction mixture: 30 mM MOPS (3-morpholinopropanesulfonic acid), 5 mM magnesium chloride, 3 mM DTT (dithiothreitol), 0.1 mg/ml BSA (bovine serum albumin), 5% glycerol, 10% DMSO (dimethyl sulfoxide), 0.01% Tween 20.
Then, 50 nM target DNA (10 μl) was added, and the mixture was reacted at 37° C. for 10 min and washed with phosphate buffer containing 0.1% Tween 20 to stop the reaction.
Then, 100 mU/ml peroxidase labeled anti-digoxigenin antibody solution (Roche, 100 μl) was added, and the mixture was reacted at 37° C. for 60 min, followed by washing with phosphate buffer containing 0.1% Tween 20.
A peroxidase color solution (Bio Rad, 100 μl) was added and allowed to react at room temperature for 4 min. The color reaction was stopped by adding 1N sulfuric acid (100 μl). The absorbance at 450 nm was measured. […]

CC(=O)NCC(=O)NCc1cc(C(=O)O)c(=O)n2cc(Cc3cccc(Cl)c3F)ccc12 [Example 57, 1-[(2-acetylaminoacetylamino)methyl]-7-(3-chloro-2-fluorobenzyl)-4-oxo-4H-quinolizine-3-carboxylic acid] was tested. Which IC50 did it give?
The IC50 was 100 to 1000 nM.

With CC(C)(C)OC(=O)c1cc(C(=O)O)c(=O)n2cc(Cc3cccc(Cl)c3F)ccc12 [Example 62, 7-(3-chloro-2-fluorobenzyl)-4-oxo-4H-quinolizine-1,3-dicarboxylic acid 1-tert-butyl ester] as the molecule, how does the IC50 read?
Its IC50 is 100 to 1000 nM.

How did the IC50 turn out when CCc1cc(C(=O)O)c(=O)n2cc(Cc3cccc(Cl)c3F)ccc12 [Example 4, 7-(3-chloro-2-fluorobenzyl)-1-ethyl-4-oxo-4H-quinolizine-3-carboxylic acid] was run?
Its IC50 is 10 to 100 nM.

Which IC50 does the source give for CS(=O)(=O)Nc1cc(C(=O)O)c(=O)n2cc(Cc3cccc(Cl)c3F)ccc12 [Example 29, 7-(3-chloro-2-fluorobenzyl)-1-methylsulfonylamino-4-oxo-4H-quinolizine-3-carboxylic acid] here?
Its IC50 is 100 to 1000 nM.

How did the IC50 turn out when CO[C@H](C)C(=O)NCc1cc(C(=O)O)c(=O)n2cc(Cc3cccc(Cl)c3F)ccc12 [Example 53, 7-(3-chloro-2-fluorobenzyl)-1-[((R)-2-methoxypropionylamino)methyl]-4-oxo-4H-quinolizine-3-carboxylic acid] was run?
The IC50 was 10 to 100 nM.

How did the IC50 turn out when O=C(O)c1ccc2ccc(Cc3cccc(Cl)c3F)cn2c1=O [Example 2, 7-(3-chloro-2-fluorobenzyl)-4-oxo-4H-quinolizine-3-carboxylic acid] was run?
The IC50 was 100 to 1000 nM.

O=C(Cc1ccccc1)NCc1cc(C(=O)O)c(=O)n2cc(Cc3cccc(Cl)c3F)ccc12 [Example 49, 7-(3-chloro-2-fluorobenzyl)-4-oxo-1-(phenylacetylaminomethyl)-4H-quinolizine-3-carboxylic acid] was tested. Which IC50 did it give?
The IC50 was 10 to 100 nM.

For O=C(O)c1ccc2ccc(Cc3ccccc3)cn2c1=O [Example 11, 7-benzyl-4-oxo-4H-quinolizine-3-carboxylic acid], which IC50 is on record?
Its IC50 is 1000 to 10000 nM.

For NCc1cc(C(=O)O)c(=O)n2cc(Cc3cccc(Cl)c3F)ccc12 [Example 20, 1-aminomethyl-7-(3-chloro-2-fluorobenzyl)-4-oxo-4H-quinolizine-3-carboxylic acid hydrochloric acid], which IC50 is on record?
Its IC50 is 100 to 1000 nM.

With COCOc1cc(C(=O)O)c(=O)n2cc(Cc3cccc(Cl)c3F)ccc12 [Example 58, 7-(3-chloro-2-fluorobenzyl)-1-methoxymethoxy-4-oxo-4H-quinolizine-3-carboxylic acid] as the molecule, how does the IC50 read?
The IC50 was 100 to 1000 nM.

For CS(=O)(=O)NCc1cc(C(=O)O)c(=O)n2cc(Cc3cccc(Cl)c3F)ccc12 [Example 23, 7-(3-chloro-2-fluorobenzyl)-1-(methylsulfonylaminomethyl)-4-oxo-4H-quinolizine-3-carboxylic acid], which IC50 is on record?
Its IC50 is 1000 to 10000 nM.

For CC(C)C(=O)NCc1cc(C(=O)O)c(=O)n2cc(Cc3cccc(Cl)c3F)ccc12 [Example 44, 7-(3-chloro-2-fluorobenzyl)-1-(isobutyrylaminomethyl)-4-oxo-4H-quinolizine-3-carboxylic acid], which IC50 is on record?
Its IC50 is 10 to 100 nM.

How did the IC50 turn out when CC(C)(C)[C@@H](CO)c1cc(C(=O)O)c(=O)n2cc(Cc3cccc(Cl)c3Cl)ccc12 [Example 64, 7-(2,3-dichlorobenzyl)-1-((R)-1-hydroxymethyl-2,2-dimethylpropyl)-4-oxo-4H-quinolizine-3-carboxylic acid] was run?
The IC50 was less than 10 nM.

O=C(COc1ccccc1)NCc1cc(C(=O)O)c(=O)n2cc(Cc3cccc(Cl)c3F)ccc12 [Example 51, 7-(3-chloro-2-fluorobenzyl)-4-oxo-1-[(2-phenoxyacetylamino)methyl]-4H-quinolizine-3-carboxylic acid] was tested. Which IC50 did it give?
Its IC50 is 10 to 100 nM.

How did the IC50 turn out when NC(=O)Cc1cc(C(=O)O)c(=O)n2cc(Cc3cccc(Cl)c3F)ccc12 [Example 26, 1-carbamoylmethyl-7-(3-chloro-2-fluorobenzyl)-4-oxo-4H-quinolizine-3-carboxylic acid] was run?
The IC50 was 10 to 100 nM.

Which IC50 does the source give for CCCc1cc(C(=O)O)c(=O)n2cc(Cc3cccc(Cl)c3F)ccc12 [Example 12, 7-(3-chloro-2-fluorobenzyl)-4-oxo-1-propyl-4H-quinolizine-3-carboxylic acid] here?
The IC50 was 10 to 100 nM.

CCNC(=O)NCc1cc(C(=O)O)c(=O)n2cc(Cc3cccc(Cl)c3F)ccc12 [Example 48, 7-(3-chloro-2-fluorobenzyl)-1-[(3-ethylureido)methyl]-4-oxo-4H-quinolizine-3-carboxylic acid] was tested. Which IC50 did it give?
The IC50 was 10 to 100 nM.

For COc1cc2c([C@H](CO)C(C)C)cc(C(=O)O)c(=O)n2cc1Cc1cccc(Cl)c1F [Example 10, 7-(3-chloro-2-fluorobenzyl)-1-((R)-1-hydroxymethyl-2-methylpropyl)-8-methoxy-4-oxo-4H-quinolizine-3-carboxylic acid], which IC50 is on record?
The IC50 was less than 10 nM.

Which IC50 does the source give for CO[C@@H](C)C(=O)NCc1cc(C(=O)O)c(=O)n2cc(Cc3cccc(Cl)c3F)ccc12 [Example 52, 7-(3-chloro-2-fluorobenzyl)-1-[((S)-2-methoxypropionylamino)methyl]-4-oxo-4H-quinolizine-3-carboxylic acid] here?
The IC50 was 10 to 100 nM.

How did the IC50 turn out when CC(C)(C)OC(=O)NCc1cc(C(=O)O)c(=O)n2cc(Cc3cccc(Cl)c3F)ccc12 [Example 35, 1-(tert-butoxycarbonylamino)methyl-7-(3-chloro-2-fluorobenzyl)-4-oxo-4H-quinolizine-3-carboxylic acid] was run?
Its IC50 is 10 to 100 nM.

CCOC(=O)NCc1cc(C(=O)O)c(=O)n2cc(Cc3cccc(Cl)c3F)ccc12 [Example 46, 7-(3-chloro-2-fluorobenzyl)-1-(ethoxycarbonylaminomethyl)-4-oxo-4H-quinolizine-3-carboxylic acid] was tested. Which IC50 did it give?
Its IC50 is 10 to 100 nM.

Which IC50 does the source give for C[C@@H](CO)c1cc(C(=O)O)c(=O)n2cc(Cc3cccc(Cl)c3F)ccc12 [Example 14, 7-(3-chloro-2-fluorobenzyl)-1-((R)-2-hydroxy-1-methylethyl)-4-oxo-4H-quinolizine-3-carboxylic acid] here?
The IC50 was 10 to 100 nM.

COC(C)(C)C(=O)NCc1cc(C(=O)O)c(=O)n2cc(Cc3cccc(Cl)c3F)ccc12 [Example 56, 7-(3-chloro-2-fluorobenzyl)-1-[(2-methoxy-2-methylpropionylamino)methyl]-4-oxo-4H-quinolizine-3-carboxylic acid] was tested. Which IC50 did it give?
Its IC50 is 100 to 1000 nM.

COC(=O)NCc1cc(C(=O)O)c(=O)n2cc(Cc3cccc(Cl)c3F)ccc12 [Example 24, 7-(3-chloro-2-fluorobenzyl)-1-(methoxycarbonylaminomethyl)-4-oxo-4H-quinolizine-3-carboxylic acid] was tested. Which IC50 did it give?
Its IC50 is 10 to 100 nM.

CCC(=O)NCc1cc(C(=O)O)c(=O)n2cc(Cc3cccc(Cl)c3F)ccc12 [Example 42, 7-(3-chloro-2-fluorobenzyl)-4-oxo-1-(propionylaminomethyl)-4H-quinolizine-3-carboxylic acid] was tested. Which IC50 did it give?
Its IC50 is 10 to 100 nM.

O=C(CO)NCc1cc(C(=O)O)c(=O)n2cc(Cc3cccc(Cl)c3F)ccc12 [Example 39, 7-(3-chloro-2-fluorobenzyl)-1-[(2-hydroxyacetylamino)methyl]-4-oxo-4H-quinolizine-3-carboxylic acid] was tested. Which IC50 did it give?
The IC50 was 10 to 100 nM.

Which IC50 does the source give for CC(C)(C)C(=O)NCc1cc(C(=O)O)c(=O)n2cc(Cc3cccc(Cl)c3F)ccc12 [Example 37, 7-(3-chloro-2-fluorobenzyl)-1-(2,2-dimethylpropionylamino)methyl-4-oxo-4H-quinolizine-3-carboxylic acid] here?
Its IC50 is 10 to 100 nM.

How did the IC50 turn out when CCCC(=O)NCc1cc(C(=O)O)c(=O)n2cc(Cc3cccc(Cl)c3F)ccc12 [Example 43, 1-(butyrylaminomethyl)-7-(3-chloro-2-fluorobenzyl)-4-oxo-4H-quinolizine-3-carboxylic acid] was run?
Its IC50 is 10 to 100 nM.
